Measurements from US12441768B2, “Compositions and methods for treating endometriosis” (EndoMet Biosciences, Inc., priority 2018, dated 2025).
Where a SMILES comes first, the peptide text is derived from it.

What was measured:
[1] = % Viability non-Wnt responsive cells
β-catenin = target: T1, β-catenin (Homo sapiens, UniProt P35222); experiment: KD50 measurement using competitive fluorescence polarization (FP) with labelled TCF4; assay type: binding; conditions: fluorescence polarization, β-catenin; for Kd: read-out: β-Cat FP KD
T1 sequence (P35222 1-781): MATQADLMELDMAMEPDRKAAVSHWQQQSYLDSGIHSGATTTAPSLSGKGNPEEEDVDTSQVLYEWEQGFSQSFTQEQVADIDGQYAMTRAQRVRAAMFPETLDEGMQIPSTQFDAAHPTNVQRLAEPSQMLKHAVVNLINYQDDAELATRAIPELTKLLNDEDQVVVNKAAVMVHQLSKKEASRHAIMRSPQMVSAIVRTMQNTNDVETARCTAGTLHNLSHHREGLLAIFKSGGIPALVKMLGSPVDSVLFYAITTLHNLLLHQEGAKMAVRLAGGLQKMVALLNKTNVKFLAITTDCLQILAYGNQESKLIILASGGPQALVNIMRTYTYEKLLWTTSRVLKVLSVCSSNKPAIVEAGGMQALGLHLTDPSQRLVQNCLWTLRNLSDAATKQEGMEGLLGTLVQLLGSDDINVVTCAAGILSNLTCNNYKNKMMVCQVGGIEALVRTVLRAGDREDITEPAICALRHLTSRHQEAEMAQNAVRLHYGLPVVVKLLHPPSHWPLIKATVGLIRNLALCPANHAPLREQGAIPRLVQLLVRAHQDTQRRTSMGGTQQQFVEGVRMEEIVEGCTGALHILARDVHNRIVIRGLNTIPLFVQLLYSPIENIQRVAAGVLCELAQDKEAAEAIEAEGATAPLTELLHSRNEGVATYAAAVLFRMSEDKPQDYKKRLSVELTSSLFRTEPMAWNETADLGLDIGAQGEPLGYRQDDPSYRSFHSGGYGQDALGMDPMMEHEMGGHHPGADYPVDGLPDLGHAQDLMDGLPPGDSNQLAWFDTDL
How it was run: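 Each compound competes against labelled TCF4 (5 nM) for 100 nM β-catenin at room temperature, tested over 10 nM to 30 uM. Signal: polarization at 470/520 nm excitation/emission. Three repeat experiments were performed.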

[2] = target: Wnt-responsive promoter (TCF/LEF); experiment: Wnt-dependent luciferase reporter assay; assay type: cell-based, murine
How it was run: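 Murine 3T3 fibroblasts carrying a TCF/LEF-driven luciferase reporter, stimulated with Wnt3a in the presence of increasing peptide concentrations or vehicle. Luminescence inhibition gave EC50 values in uM.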

SMILES	β-Cat FP Hill slope (β-catenin)	Kd (β-catenin)	EC50 [2]	viability [1]
CC[C@H](C)[C@H](NC(=O)[C@H](CC(C)C)NC(=O)[C@H](Cc1ccccc1)NC(=O)[C@H](Cc1c[nH]c2ccccc12)NC(=O)[C@H](CCSC)NC(=O)[C@H](CCCNC(=N)N)NC(=O)[C@@H](NC(=O)[C@@H](N)CCSC)[C@@H](C)O)C(=O)N[C@@H](CO)C(=O)N[C@@H](Cc1ccccc1)C(=O)N[C@@H](Cc1c[nH]c2ccccc12)C(N)=O [compound 73] (H-MTRMWFLISFW-NH2)		> 30 µM	> 30 µM	97.3%
CC[C@H](C)[C@@H]1NC(=O)[C@H](CC(C)C)NC(=O)[C@H](Cc2ccccc2)NC(=O)[C@H](Cc2c[nH]c3ccccc23)NC(=O)[C@H](CCSC)NC(=O)CCCNC(=O)C[C@@H](C(=O)O)NC(=O)[C@H](Cc2c[nH]c3ccccc23)NC(=O)[C@H](Cc2ccccc2)NC(=O)[C@H](CS)NC1=O [compound 147] (HELM PEPTIDE1{[O=C(CCCN[*:1])[*:2]].M.W.F.L.I.C.F.W.D}$PEPTIDE1,PEPTIDE1,1:R1-10:R3$$$V2.0)		> 30 µM	> 30 µM	105%
CC[C@H](C)[C@H](NC(=O)[C@H](CC(C)C)NC(=O)[C@H](Cc1ccccc1)NC(=O)[C@H](Cc1c[nH]c2ccccc12)NC(=O)[C@H](CCCCN)NC(=O)[C@H](CCCNC(=N)N)NC(=O)[C@H](CO)NC(=O)[C@@H](N)Cc1c[nH]c2ccccc12)C(=O)N[C@@H](CO)C(=O)N[C@@H](Cc1ccccc1)C(=O)N[C@@H](Cc1c[nH]c2ccccc12)C(N)=O [compound 90] (H-WSRKWFLISFW-NH2)		> 30 µM	> 30 µM	83.3%
CC[C@H](C)[C@H](NC(=O)[C@H](CC(C)C)NC(=O)[C@H](Cc1ccccc1)NC(=O)[C@H](Cc1c[nH]c2ccccc12)NC(=O)[C@H](CCSC)NC(=O)[C@H](CCCNC(=N)N)NC(=O)[C@H](CO)NC(=O)[C@@H](N)CCCCN)C(=O)N[C@@H](CO)C(=O)N[C@@H](Cc1ccccc1)C(=O)N[C@@H](Cc1c[nH]c2ccccc12)C(N)=O [compound 83] (H-KSRMWFLISFW-NH2)		> 30 µM	> 30 µM	90.9%
CC[C@H](C)[C@@H]1NC(=O)[C@H](CC(C)C)NC(=O)[C@H](Cc2ccc(O)cc2)NC(=O)[C@H](Cc2c[nH]c3ccccc23)NC(=O)[C@H](CCSC)NC(=O)[C@H](CCCNC(=N)N)NC(=O)[C@H](CO)NC(=O)[C@H](CCSC)NC(=O)[C@@H](N)CCCCNC(=O)[C@H](Cc2c[nH]c3ccccc23)NC(=O)[C@H](Cc2ccccc2)NC(=O)[C@H](CO)NC1=O [compound 31] (HELM PEPTIDE1{K.M.S.R.M.W.Y.L.I.S.F.W}$PEPTIDE1,PEPTIDE1,1:R3-12:R2$$$V2.0; bridges inferred)			> 30 µM	89%
CC[C@H](C)[C@H](NC(=O)[C@H](CC(C)C)NC(=O)[C@@H](NC(=O)[C@H](Cc1c[nH]c2ccccc12)NC(=O)[C@H](CCSC)NC(C)=O)[C@@H](C)CC)C(=O)N[C@@H](CO)C(=O)N[C@@H](Cc1ccccc1)C(=O)N[C@@H](Cc1c[nH]c2ccccc12)C(=O)N(C)CC(=O)O [compound 221] (HELM PEPTIDE1{[ac].M.W.I.L.I.S.F.W.[Sar]}$$$$V2.0)		< 0.4 µM		101%
CC[C@H](C)[C@H](NC(=O)[C@H](CC(C)C)NC(=O)[C@H](Cc1ccccc1)NC(=O)[C@H](Cc1c[nH]c2ccccc12)NC(=O)[C@@H](N)CCSC)C(=O)N[C@@H](CS)C(=O)N[C@@H](Cc1ccccc1)C(=O)N[C@@H](Cc1c[nH]c2ccccc12)C(=O)N(C)CC(=O)O [compound 213] (HELM PEPTIDE1{M.W.F.L.I.C.F.W.[Sar]}$$$$V2.0)		1 to 10 µM		112%
CC[C@H](C)[C@@H]1NC(=O)[C@@H](NC(=O)[C@H](CCC(N)=O)NC(=O)[C@H](C)N(C)C(=O)[C@H](Cc2c[nH]c3ccccc23)NC(C)=O)CCCCNC(=O)CC[C@@H](C(=O)N[C@@H](Cc2c[nH]cn2)C(=O)N[C@H](C(=O)N[C@@H](CCC(N)=O)C(=O)N[C@@H](CCCNC(=N)N)C(=O)N[C@H](C(=O)N[C@@H](Cc2c[nH]c3ccccc23)C(=O)NCC(N)=O)C(C)C)C(C)C)NC(=O)[C@H](CC(=O)O)NC(=O)[C@H](CC(C)C)NC1=O [compound 402] (HELM PEPTIDE1{[ac].W.[meA].Q.K.I.L.D.E.H.V.Q.R.V.W.G.[am]}$PEPTIDE1,PEPTIDE1,5:R3-9:R3$$$V2.0)	0.7	< 0.4 µM	> 30 µM	

Further lines, with some results ahead:

β-Cat FP Hill slope (β-catenin)	Kd (β-catenin)	EC50 [2]	SMILES	viability [1]
3	< 0.4 µM	> 30 µM	CC[C@H](C)[C@H](NC(=O)[C@H](CC(C)C)NC(=O)C(C)(Cc1ccccc1)NC(=O)[C@H](Cc1c[nH]c2ccccc12)NC(=O)[C@@H](N)CCSC)C(=O)N[C@@H](CO)C(=O)N[C@@H](Cc1ccccc1)C(=O)N[C@@H](Cc1c[nH]c2ccccc12)C(=O)NCC(=O)O (some centres unmarked) [compound 133] (HELM PEPTIDE1{M.W.[CC(Cc1ccccc1)(N[*:1])C(=O)[*:2]].L.I.S.F.W.G}$$$$V2.0)	95.4%
3	1 to 10 µM	7.5 to 15 µM	CC[C@H](C)[C@H](NC(=O)[C@H](CC(C)C)NC(=O)[C@H](Cc1ccccc1)NC(=O)[C@@H](N)Cc1c[nH]c2ccccc12)C(=O)N[C@@H](CO)C(=O)N[C@@H](Cc1ccccc1)C(=O)N[C@@H](Cc1c[nH]c2ccccc12)C(=O)O [compound 110] (H-WFLISFW-OH)	103%
2.45	1 to 10 µM	22.5 to 30 µM	CC[C@H](C)[C@H](NC(=O)[C@H](CC(C)C)NC(=O)[C@H](Cc1ccccc1)NC(=O)[C@@H](N)Cc1c[nH]c2ccccc12)C(=O)N[C@@H](CO)C(=O)N[C@@H](CO)C(=O)N[C@@H](Cc1c[nH]c2ccccc12)C(=O)O [compound 97] (H-WFLISSW-OH)	102%
0.85	10 to 30 µM	7.5 to 15 µM	CC[C@H](C)[C@@H]1NC(=O)[C@H](CC(C)C)NC(=O)[C@H](Cc2ccccc2)NC(=O)[C@H](Cc2c[nH]c3ccccc23)NC(=O)[C@@H](N)CC(=O)NCCCC[C@@H](C(=O)NCC(=O)O)NC(=O)[C@H](Cc2c[nH]c3ccccc23)NC(=O)[C@H](Cc2ccccc2)NC(=O)[C@H](CS)NC1=O [compound 176] (HELM PEPTIDE1{D.W.F.L.I.C.F.W.K.G}$PEPTIDE1,PEPTIDE1,1:R3-9:R3$$$V2.0)	109%
	> 30 µM	15 to 22.5 µM	CC[C@H](C)[C@H](NC(=O)[C@H](CC(C)C)NC(=O)[C@H](Cc1ccccc1)NC(=O)[C@H](Cc1c[nH]c2ccccc12)NC(=O)[C@@H](N)CCSC)C(=O)N[C@@H](CS)C(=O)N[C@@H](Cc1ccccc1)C(=O)N[C@@H](Cc1c[nH]c2ccccc12)C(=O)NCC(=O)O [compound 154] (H-MWFLICFWG-OH)	103%
1.01	1 to 10 µM	< 7.5 µM	CC[C@H](C)[C@@H]1NC(=O)[C@H](CC(C)C)NC(=O)[C@H](Cc2ccccc2)NC(=O)[C@H](Cc2c[nH]c3ccccc23)NC(=O)[C@@H](N)CCCCNC(=O)CC[C@@H](C(=O)O)NC(=O)[C@H](Cc2c[nH]c3ccccc23)NC(=O)[C@H](Cc2ccccc2)NC(=O)[C@H](CS)NC1=O [compound 179] (HELM PEPTIDE1{K.W.F.L.I.C.F.W.E}$PEPTIDE1,PEPTIDE1,1:R3-9:R3$$$V2.0)	90.9%
		7.5 to 15 µM	CC[C@H](C)[C@H](NC(=O)[C@H](CC(C)C)NC(=O)[C@@H](NC(=O)[C@H](Cc1c[nH]c2ccccc12)NC(=O)[C@H](CCSC)NC(=O)[C@H](CCCNC(=N)N)NC(=O)[C@H](CO)NC(=O)[C@@H](N)CCSC)[C@@H](C)CC)C(=O)N[C@@H](CO)C(=O)N[C@@H](Cc1ccccc1)C(=O)N[C@@H](Cc1c[nH]c2ccccc12)C(=O)NCC(=O)O [compound 51] (H-MSRMWILISFWG-OH)	98.5%
		15 to 22.5 µM	CC[C@H](C)[C@H](NC(=O)[C@H](CC(C)C)NC(=O)[C@H](Cc1ccccc1)NC(=O)[C@H](Cc1c[nH]c2ccccc12)NC(=O)[C@H](CCSC)NC(=O)[C@H](CCCNC(=N)N)NC(=O)[C@H](CO)NC(=O)[C@@H](N)CCSC)C(=O)N[C@@H](CO)C(=O)N[C@@H](Cc1ccccc1)C(=O)N[C@@H](Cc1c[nH]c2ccccc12)C(=O)N[C@H](C(=O)NCC(=O)O)[C@@H](C)O [compound 44] (H-MSRMWFLISFWTG-OH)	102%
		< 7.5 µM	CC[C@H](C)[C@H](NC(=O)[C@H](CC(C)C)NC(=O)[C@H](Cc1ccccc1)NC(=O)[C@H](Cc1c[nH]c2ccccc12)NC(=O)[C@H](CCSC)NC(=O)[C@H](CCCNC(=N)N)NC(=O)[C@H](CO)NC(=O)[C@@H](N)CCSC)C(=O)N[C@@H](CS)C(=O)N[C@@H](Cc1ccccc1)C(=O)N[C@@H](Cc1c[nH]c2ccccc12)C(=O)NCC(=O)O [compound 46] (H-MSRMWFLICFWG-OH)	101%
